Values after ≈ are worked out from the molar mass of the structure shown.
What was measured:
Type in all cases: functional
Haemophilus influenzae [1] = assay: Antimicrobial activity against ampicillin resistant nontypeable Haemophilus influenzae isolate BB1052 harboring with plasmid pB1000 bearing beta-lactamase ROB-1 by broth microdilution method
Haemophilus influenzae [2] = assay: Antimicrobial activity against ampicillin resistant nontypeable Haemophilus influenzae isolate BB1051 harboring with plasmid pB1000 bearing beta-lactamase ROB-1 by broth microdilution method
Haemophilus influenzae [3] = assay: Antimicrobial activity against Haemophilus influenzae Rd KW20 by broth microdilution method
Haemophilus influenzae [4] = assay: Antimicrobial activity against Haemophilus influenzae Rd KW20 harboring with plasmid pB1000 bearing beta-lactamase ROB-1 by broth microdilution method
Haemophilus influenzae [5] = assay: Antimicrobial activity against ampicillin resistant nontypeable Haemophilus influenzae isolate BB1050 harboring with plasmid pB1000 bearing beta-lactamase ROB-1 by broth microdilution method
Haemophilus influenzae [6] = assay: Antimicrobial activity against ampicillin resistant serotype-e Haemophilus influenzae isolate BB1053 harboring with plasmid pB1000 bearing beta-lactamase ROB-1 by broth microdilution method

SMILES	MIC (Haemophilus influenzae [1]) [µg/mL]	MIC (Haemophilus influenzae [2]) [µg/mL]	MIC (Haemophilus influenzae [3]) [µg/mL]	MIC (Haemophilus influenzae [4]) [µg/mL]	MIC (Haemophilus influenzae [5]) [µg/mL]	MIC (Haemophilus influenzae [6]) [µg/mL]
CO/N=C(\C(=O)N[C@@H]1C(=O)N2C(C(=O)O)=C(COC(N)=O)CS[C@H]12)c1ccco1 [CEFUROXIME]	4 (≈ 9.43 µM)	4 (≈ 9.43 µM)	0.5 (≈ 1.18 µM)	4 (≈ 9.43 µM)	4 (≈ 9.43 µM)	4 (≈ 9.43 µM)
CC1(C)S[C@@H]2[C@H](NC(=O)[C@H](N)c3ccc(O)cc3)C(=O)N2[C@H]1C(=O)O [AMOXICILLIN]	> 64	> 64	≤ 0.5	> 64	> 64	> 64
C[C@H]1[C@H](NC(=O)/C(=N\OC(C)(C)C(=O)O)c2csc(N)n2)C(=O)N1S(=O)(=O)O [AZTREONAM]	≤ 0.12	≤ 0.12	≤ 0.12	≤ 0.12	≤ 0.12	≤ 0.12
N[C@@H](C(=O)N[C@@H]1C(=O)N2C(C(=O)O)=C(Cl)CS[C@H]12)c1ccccc1 [CEFACLOR ANHYDROUS]	64 (≈ 174 µM)	64 (≈ 174 µM)	1 (≈ 2.72 µM)	64 (≈ 174 µM)	64 (≈ 174 µM)	64 (≈ 174 µM)
CC1(C)S[C@@H]2[C@H](NC(=O)Cc3ccccc3)C(=O)N2[C@H]1C(=O)O [PENICILLIN G]	> 256	> 256	0.5 (≈ 1.5 µM)	> 256	> 256	> 256
CO/N=C(\C(=O)N[C@@H]1C(=O)N2C(C(=O)O)=C(COC(C)=O)CS[C@H]12)c1csc(N)n1 [CEFOTAXIME]	≤ 0.03	≤ 0.03	≤ 0.03	–	0.06 (≈ 0.132 µM)	≤ 0.03
CC1(C)S[C@@H]2[C@H](NC(=O)[C@H](N)c3ccccc3)C(=O)N2[C@H]1C(=O)O [AMPICILLIN]	> 128	> 128	≤ 0.25	> 128	> 128	> 128
C=CC1=C(C(=O)O)N2C(=O)[C@@H](NC(=O)/C(=N\OCC(=O)O)c3csc(N)n3)[C@H]2SC1 [CEFIXIME]	≤ 0.03	0.06 (≈ 0.132 µM)	≤ 0.03	0.06 (≈ 0.132 µM)	0.06 (≈ 0.132 µM)	0.06 (≈ 0.132 µM)
C[C@@H](O)[C@H]1C(=O)N2C(C(=O)O)=C(SCCNC=N)C[C@H]12 [IMIPENEM ANHYDROUS]	1 (≈ 3.34 µM)	0.5 (≈ 1.67 µM)	0.5 (≈ 1.67 µM)	1 (≈ 3.34 µM)	2 (≈ 6.68 µM)	0.5 (≈ 1.67 µM)

Source: ChEMBL document CHEMBL1255399, “Haemophilus influenzae clinical isolates with plasmid pB1000 bearing blaROB-1: fitness cost and interspecies dissemination” (2010)
